Laboratory results: ChEMBL document CHEMBL5465560, “Selectivity Literature for EUbOPEN Chemogenomic Library” (2024)

Key:
[1] = target: Calcium/calmodulin-dependent protein kinase type 1 (Homo sapiens) (UniProt Q14012); experiment: Selectivity interaction (KinomeScan (DiscoverX)) EUB0001079a CAMK1; conditions: at 1 µM
[2] = target: T1, Ephrin type-B receptor 4 (Homo sapiens) (UniProt P54760); experiment: Selectivity interaction (KinomeScan (DiscoverX)) EUB0001079a EPHB4; conditions: at 1 µM
T1 sequence (whole entry): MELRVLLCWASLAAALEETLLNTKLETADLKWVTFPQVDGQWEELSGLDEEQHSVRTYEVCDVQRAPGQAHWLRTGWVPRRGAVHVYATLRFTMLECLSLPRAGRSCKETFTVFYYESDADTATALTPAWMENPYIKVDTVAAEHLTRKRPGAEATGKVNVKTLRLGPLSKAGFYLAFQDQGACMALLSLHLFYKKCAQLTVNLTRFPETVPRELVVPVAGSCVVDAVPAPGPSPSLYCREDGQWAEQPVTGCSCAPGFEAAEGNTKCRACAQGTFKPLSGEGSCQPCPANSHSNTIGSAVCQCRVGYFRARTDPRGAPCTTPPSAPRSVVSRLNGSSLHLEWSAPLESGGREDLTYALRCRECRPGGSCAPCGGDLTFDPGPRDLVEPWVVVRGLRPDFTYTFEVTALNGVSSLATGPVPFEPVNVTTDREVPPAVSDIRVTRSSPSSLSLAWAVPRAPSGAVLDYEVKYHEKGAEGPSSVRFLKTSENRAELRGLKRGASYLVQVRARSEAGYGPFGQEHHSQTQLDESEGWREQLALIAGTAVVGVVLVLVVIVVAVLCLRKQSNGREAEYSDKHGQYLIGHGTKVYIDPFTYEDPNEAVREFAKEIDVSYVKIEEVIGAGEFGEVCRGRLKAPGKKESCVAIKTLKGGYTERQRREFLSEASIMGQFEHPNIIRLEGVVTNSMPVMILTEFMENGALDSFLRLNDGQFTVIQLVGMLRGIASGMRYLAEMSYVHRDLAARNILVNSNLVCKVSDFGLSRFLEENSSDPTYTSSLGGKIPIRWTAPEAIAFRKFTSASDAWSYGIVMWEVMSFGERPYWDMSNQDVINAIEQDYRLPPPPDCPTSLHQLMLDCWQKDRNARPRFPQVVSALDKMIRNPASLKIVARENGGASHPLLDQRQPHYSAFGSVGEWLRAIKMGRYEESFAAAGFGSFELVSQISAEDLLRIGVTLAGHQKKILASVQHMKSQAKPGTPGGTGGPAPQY

[3] = target: Histone acetyltransferase p300 (Homo sapiens) (UniProt Q09472); experiment: Selectivity interaction (Bromodomain panel (DSF asssay)) EUB0000270b EP300
Sequence of Histone acetyltransferase p300 (Homo sapiens) (Q09472 whole entry): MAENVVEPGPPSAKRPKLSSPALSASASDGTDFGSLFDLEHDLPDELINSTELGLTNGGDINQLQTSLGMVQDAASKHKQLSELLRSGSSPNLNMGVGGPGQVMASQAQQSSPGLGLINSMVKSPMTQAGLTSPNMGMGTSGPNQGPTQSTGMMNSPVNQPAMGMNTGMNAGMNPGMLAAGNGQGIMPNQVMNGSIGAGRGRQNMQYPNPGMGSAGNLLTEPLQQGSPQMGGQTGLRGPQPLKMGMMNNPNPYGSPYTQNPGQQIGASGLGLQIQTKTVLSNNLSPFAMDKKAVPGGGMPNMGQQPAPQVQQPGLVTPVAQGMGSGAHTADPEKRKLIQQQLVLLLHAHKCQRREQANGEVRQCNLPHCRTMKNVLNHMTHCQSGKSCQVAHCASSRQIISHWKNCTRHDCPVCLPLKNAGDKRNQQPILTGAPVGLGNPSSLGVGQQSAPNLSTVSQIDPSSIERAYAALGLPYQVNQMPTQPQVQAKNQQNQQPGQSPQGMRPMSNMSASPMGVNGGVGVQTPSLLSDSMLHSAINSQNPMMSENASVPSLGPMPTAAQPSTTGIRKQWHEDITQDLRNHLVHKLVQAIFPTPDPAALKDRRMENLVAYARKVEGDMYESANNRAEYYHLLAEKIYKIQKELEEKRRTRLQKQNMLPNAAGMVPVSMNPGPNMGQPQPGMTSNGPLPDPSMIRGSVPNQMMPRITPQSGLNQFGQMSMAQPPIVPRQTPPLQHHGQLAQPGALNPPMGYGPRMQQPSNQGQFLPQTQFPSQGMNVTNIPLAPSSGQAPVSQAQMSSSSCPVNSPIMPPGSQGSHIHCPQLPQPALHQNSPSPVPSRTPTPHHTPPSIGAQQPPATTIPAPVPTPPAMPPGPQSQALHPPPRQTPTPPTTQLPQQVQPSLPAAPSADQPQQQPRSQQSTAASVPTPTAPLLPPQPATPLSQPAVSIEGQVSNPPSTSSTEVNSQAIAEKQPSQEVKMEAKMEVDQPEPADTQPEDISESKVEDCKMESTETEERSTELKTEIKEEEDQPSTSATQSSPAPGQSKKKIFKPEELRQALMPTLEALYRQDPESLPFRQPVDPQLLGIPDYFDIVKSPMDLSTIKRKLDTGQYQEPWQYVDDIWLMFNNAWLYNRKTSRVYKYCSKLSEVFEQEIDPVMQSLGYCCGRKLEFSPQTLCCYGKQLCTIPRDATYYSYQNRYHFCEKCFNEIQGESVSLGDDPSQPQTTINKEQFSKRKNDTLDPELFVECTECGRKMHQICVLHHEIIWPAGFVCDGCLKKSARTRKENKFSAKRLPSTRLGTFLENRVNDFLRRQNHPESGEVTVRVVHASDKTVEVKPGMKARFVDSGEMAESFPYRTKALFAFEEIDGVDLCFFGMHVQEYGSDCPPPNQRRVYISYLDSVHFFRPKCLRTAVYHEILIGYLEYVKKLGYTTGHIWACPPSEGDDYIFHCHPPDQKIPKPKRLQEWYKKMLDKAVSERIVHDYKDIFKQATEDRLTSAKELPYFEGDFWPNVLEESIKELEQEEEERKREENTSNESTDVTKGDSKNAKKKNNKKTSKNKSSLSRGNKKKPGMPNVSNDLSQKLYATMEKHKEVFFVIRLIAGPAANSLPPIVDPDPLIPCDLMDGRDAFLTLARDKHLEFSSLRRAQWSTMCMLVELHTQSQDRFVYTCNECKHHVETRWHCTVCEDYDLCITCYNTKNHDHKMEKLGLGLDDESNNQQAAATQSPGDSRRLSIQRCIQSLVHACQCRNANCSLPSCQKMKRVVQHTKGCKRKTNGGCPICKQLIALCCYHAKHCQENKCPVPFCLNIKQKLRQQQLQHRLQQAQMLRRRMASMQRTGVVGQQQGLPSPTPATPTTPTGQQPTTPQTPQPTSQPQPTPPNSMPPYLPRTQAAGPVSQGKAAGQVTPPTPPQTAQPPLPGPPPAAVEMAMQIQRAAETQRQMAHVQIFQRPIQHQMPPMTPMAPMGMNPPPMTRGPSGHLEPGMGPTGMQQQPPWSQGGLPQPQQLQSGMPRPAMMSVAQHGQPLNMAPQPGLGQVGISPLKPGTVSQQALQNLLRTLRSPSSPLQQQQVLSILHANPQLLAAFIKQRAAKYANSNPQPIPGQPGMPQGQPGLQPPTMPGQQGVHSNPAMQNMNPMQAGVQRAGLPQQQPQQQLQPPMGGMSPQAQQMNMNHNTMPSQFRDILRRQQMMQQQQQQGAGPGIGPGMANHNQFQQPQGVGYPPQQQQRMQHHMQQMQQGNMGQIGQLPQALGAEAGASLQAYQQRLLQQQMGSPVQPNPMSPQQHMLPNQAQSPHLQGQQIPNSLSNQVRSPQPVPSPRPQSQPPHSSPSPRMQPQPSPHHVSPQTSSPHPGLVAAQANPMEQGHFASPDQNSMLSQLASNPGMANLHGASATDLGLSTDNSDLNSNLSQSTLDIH

[4] = target: Serine/threonine-protein kinase B-raf (Homo sapiens) (UniProt P15056); experiment: Selectivity interaction (Kinase panel (Invitrogen)) EUB0000639a BRAF; conditions: at 200 nM
Sequence of Serine/threonine-protein kinase B-raf (Homo sapiens) (P15056 whole entry): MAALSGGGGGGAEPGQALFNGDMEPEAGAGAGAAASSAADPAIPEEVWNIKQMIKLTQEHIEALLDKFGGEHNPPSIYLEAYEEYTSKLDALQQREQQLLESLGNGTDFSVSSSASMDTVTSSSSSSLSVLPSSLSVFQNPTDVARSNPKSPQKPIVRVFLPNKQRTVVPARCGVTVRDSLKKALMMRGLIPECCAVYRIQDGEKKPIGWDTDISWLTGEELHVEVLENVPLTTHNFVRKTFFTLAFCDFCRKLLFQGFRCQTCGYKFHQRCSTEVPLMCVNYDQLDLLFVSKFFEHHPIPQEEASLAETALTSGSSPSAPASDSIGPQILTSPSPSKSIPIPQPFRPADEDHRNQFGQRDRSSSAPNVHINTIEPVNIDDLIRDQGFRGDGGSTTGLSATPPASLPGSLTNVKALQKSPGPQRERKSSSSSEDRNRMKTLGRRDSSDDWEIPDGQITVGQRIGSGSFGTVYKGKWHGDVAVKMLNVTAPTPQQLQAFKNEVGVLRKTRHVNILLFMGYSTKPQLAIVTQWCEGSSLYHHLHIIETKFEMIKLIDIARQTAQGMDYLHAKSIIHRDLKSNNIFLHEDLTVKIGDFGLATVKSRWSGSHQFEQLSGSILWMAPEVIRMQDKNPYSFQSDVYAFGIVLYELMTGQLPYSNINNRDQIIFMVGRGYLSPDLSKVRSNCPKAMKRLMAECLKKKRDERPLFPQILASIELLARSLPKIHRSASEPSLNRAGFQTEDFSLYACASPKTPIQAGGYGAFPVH

[5] = target: Phosphatidylinositol 4-phosphate 5-kinase type-1 alpha (Homo sapiens) (UniProt Q99755); experiment: Selectivity interaction (KinomeScan (DiscoverX)) EUB0000607a PIP5K1A; conditions: at 10 µM
Sequence of Phosphatidylinositol 4-phosphate 5-kinase type-1 alpha (Homo sapiens) (Q99755 whole entry): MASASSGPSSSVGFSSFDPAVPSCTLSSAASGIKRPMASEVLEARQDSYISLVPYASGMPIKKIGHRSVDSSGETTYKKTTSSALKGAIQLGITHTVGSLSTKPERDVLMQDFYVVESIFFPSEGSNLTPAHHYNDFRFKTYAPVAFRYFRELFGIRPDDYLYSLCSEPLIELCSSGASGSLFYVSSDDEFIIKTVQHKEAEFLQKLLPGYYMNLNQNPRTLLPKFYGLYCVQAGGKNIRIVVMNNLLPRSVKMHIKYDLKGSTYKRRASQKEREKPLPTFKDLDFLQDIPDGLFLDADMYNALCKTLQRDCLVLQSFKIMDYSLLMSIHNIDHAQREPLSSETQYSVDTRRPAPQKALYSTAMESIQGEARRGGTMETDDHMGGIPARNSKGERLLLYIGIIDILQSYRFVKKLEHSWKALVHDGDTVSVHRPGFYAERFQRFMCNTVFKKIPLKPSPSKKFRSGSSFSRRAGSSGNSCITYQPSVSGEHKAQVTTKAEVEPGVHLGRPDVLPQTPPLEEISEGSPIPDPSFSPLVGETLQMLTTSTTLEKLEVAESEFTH

[6] = target: Tyrosine-protein kinase CSK (Homo sapiens) (UniProt P41240); experiment: Selectivity interaction (KinomeScan (DiscoverX)) EUB0001049a CSK; conditions: at 1 µM
Sequence of Tyrosine-protein kinase CSK (Homo sapiens) (P41240 2-450 limits assumed): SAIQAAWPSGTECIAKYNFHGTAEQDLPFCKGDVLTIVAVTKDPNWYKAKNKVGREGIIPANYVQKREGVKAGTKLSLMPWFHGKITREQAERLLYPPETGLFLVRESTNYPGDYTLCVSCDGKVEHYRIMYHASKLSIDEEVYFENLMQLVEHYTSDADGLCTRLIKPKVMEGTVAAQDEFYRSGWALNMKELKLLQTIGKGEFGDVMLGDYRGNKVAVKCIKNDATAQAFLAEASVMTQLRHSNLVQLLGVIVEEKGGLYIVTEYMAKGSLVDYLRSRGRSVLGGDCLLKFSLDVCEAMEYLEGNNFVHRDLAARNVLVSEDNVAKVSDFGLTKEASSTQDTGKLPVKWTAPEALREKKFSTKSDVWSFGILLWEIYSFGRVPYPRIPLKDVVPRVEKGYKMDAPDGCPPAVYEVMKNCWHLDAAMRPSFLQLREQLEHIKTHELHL

[7] = target: T2, Serine/threonine-protein kinase LATS1 (Homo sapiens) (UniProt O95835); experiment: Selectivity interaction (KinomeScan (DiscoverX)) EUB0000618a LATS1; conditions: at 10 µM
T2 sequence (whole entry): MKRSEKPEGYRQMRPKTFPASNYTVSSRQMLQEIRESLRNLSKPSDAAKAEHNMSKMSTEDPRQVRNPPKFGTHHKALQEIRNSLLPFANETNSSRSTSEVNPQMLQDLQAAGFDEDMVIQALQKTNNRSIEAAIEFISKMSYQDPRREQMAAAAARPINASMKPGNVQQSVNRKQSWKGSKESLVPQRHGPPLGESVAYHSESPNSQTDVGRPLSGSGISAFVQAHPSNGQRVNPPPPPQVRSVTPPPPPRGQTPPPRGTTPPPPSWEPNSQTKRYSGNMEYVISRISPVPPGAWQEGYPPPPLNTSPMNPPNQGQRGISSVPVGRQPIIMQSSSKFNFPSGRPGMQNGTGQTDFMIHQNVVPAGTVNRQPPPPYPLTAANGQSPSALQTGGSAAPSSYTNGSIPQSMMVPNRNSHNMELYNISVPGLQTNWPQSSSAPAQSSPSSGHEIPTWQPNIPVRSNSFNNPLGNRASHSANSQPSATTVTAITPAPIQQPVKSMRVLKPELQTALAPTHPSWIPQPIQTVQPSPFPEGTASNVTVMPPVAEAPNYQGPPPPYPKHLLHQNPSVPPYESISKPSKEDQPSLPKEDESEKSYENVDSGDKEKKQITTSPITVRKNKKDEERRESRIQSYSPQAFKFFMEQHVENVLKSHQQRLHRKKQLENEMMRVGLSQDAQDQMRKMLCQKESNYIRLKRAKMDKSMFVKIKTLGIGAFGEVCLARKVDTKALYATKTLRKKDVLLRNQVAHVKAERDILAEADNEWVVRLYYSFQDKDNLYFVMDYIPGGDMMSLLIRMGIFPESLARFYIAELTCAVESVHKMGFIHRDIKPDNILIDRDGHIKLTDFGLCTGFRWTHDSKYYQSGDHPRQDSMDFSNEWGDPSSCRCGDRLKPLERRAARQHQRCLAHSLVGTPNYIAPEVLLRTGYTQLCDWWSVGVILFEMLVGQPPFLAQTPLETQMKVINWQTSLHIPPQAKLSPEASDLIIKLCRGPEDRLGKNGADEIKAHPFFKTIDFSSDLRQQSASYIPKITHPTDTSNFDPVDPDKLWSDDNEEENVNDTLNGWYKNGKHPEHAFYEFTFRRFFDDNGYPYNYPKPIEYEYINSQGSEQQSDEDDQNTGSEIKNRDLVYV

[8] = target: T3, Dual specificity mitogen-activated protein kinase kinase 3 (Homo sapiens) (UniProt P46734); experiment: Selectivity interaction (ActivX KiNativ screen (ex vivo kinase selectivity in human PBMCs)) EUB0001619a MAP2K3; format: cell-based; conditions: PBMC, at 1 µM
T3 sequence (whole entry): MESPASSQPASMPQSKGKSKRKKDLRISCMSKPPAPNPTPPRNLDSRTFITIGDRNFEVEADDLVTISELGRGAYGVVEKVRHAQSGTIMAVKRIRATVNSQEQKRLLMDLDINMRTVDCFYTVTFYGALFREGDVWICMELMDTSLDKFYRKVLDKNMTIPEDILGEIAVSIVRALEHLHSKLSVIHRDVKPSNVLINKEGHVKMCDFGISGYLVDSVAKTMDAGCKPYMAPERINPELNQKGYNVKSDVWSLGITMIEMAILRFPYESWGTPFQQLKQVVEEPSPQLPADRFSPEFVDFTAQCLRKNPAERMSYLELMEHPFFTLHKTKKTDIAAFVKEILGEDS

Sequence of Calcium/calmodulin-dependent protein kinase type 1 (Homo sapiens) (Q14012 whole entry, looked up): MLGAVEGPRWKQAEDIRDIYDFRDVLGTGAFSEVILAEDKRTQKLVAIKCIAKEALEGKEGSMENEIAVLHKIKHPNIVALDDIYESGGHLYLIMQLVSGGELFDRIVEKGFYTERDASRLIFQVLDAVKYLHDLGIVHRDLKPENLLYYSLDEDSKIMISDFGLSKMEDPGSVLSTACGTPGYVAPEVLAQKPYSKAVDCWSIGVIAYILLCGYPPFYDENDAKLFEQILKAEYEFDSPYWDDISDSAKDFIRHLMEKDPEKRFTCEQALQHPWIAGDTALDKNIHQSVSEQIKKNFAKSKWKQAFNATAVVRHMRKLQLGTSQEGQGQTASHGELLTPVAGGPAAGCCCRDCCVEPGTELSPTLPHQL

## Nc1cnc(N2CCc3cc(S(=O)(=O)Nc4c(F)cc(Cl)cc4F)cc(N4CCCC4=O)c32)nc1 [TP-020n]
[1]
  % of control: 88%
[2]
  % of control: 100%

## Cc1cc(CN)cc(C)c1-c1ncn(C)c1-c1cncn1C
[3]
  dTM: -1.45 K

## CC[C@@H]1[C@H](F)C(=O)N[C@@H]1COc1nccc2cc(C(N)=O)c(OC)cc12 [ZIMLOVISERTIB]
[4]
  % of inhibition: 8.97%

## CNC(=O)Nc1ccc(-c2nc(N3CC4CCC(C3)O4)c3cnn(C4CCC5(CC4)OCCO5)c3n2)cc1
[5]
  % of control: 84%

## COc1cc(Nc2nc(C)cc(-c3cnn4nc(OC)ccc34)n2)cc(C(F)(F)F)c1
[6]
  % of control: 59%

## O[C@H]1CC[C@H](Nc2ncc3nc(Nc4c(F)cc(F)cc4F)n([C@H]4CCOC4)c3n2)CC1
[7]
  % of control: 100%

## N#Cc1cccc(-c2c[nH]c3ncnc(N4CCOCC4)c23)c1
[8]
  % of inhibition: 6%
